Tests used:
[1] = molecular target: T1, SSTR4 (Homo sapiens, UniProt P31391); assay: Inhibition of forskolin stimulated cAMP in CHO-K1 cells overexpressing SSTR4; format: cell-based; conditions: read-out: SSTR4 Activity pEC50 (converted)
T1 construct: host or cells: CHO-K1
Procedure, shortened: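 CHO-K1 cells overexpressing SSTR4 treated 30 min at room temperature with compound in Krebs Ringer buffer containing 0.5% BSA, 300 μM IBMX and 350 nM forskolin. Intracellular cAMP measured by HTRF LANCE Ultra (665/615 nm); pEC50 values reported.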

[2] = molecular target: T1, SSTR4; assay: SSTR4 I-125 somatostatin competition binding assay (CHO-K1 membranes); conditions: competition with I-125 somatostatin, membranes from CHO-K1 overexpressing SSTR4; read-out: SSTR4 Binding pIC50 (converted)
Procedure, shortened: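 CHO-K1 membranes overexpressing SSTR4 (1 μg/well) were incubated 60 min at room temperature with compound and I-125 somatostatin (0.2 nM in the compound mix) in 25 mM HEPES pH 7.4, 10 mM MgCl2, 1 mM CaCl2, 0.5% BSA. Bound radioligand was collected on PEI-soaked filters and scintillation-counted, with results reported as pIC50.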

[3] = molecular target: T2, SSTR1 (Homo sapiens, UniProt P30872); assay: SSTR1 I-125 somatostatin competition binding assay for selectivity versus SSTR1 (CHO-K1 membranes); conditions: competition with I-125 somatostatin, membranes from CHO-K1 overexpressing SSTR1; read-out: SSTR1 Binding pIC50 (converted)
T2 construct: purchased Perkin Elmer ES-520-M400UA; host or cells: CHO-K1 membranes
T2 sequence (P30872 whole entry): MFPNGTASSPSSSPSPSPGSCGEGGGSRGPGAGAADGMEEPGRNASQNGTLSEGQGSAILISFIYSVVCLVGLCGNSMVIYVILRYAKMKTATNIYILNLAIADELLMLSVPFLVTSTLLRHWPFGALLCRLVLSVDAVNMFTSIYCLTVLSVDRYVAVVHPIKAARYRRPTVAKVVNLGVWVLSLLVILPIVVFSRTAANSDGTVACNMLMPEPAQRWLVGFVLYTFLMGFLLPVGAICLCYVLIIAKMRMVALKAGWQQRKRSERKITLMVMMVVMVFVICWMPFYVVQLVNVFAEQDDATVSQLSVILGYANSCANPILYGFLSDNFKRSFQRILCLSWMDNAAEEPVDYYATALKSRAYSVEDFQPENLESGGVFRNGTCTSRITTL
Procedure, shortened: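 Competition binding used 10 μg CHO-K1 SSTR1 membranes and I-125 somatostatin, 0.4 nM in the compound mix before membranes were added. Buffer was 25 mM HEPES pH 7.4, 10 mM MgCl2, 1 mM CaCl2, 0.5% BSA. After 60 min at room temperature, bound tracer was filtered onto PEI-soaked filters and counted by scintillation; values are pIC50.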

T1 sequence (P31391 whole entry): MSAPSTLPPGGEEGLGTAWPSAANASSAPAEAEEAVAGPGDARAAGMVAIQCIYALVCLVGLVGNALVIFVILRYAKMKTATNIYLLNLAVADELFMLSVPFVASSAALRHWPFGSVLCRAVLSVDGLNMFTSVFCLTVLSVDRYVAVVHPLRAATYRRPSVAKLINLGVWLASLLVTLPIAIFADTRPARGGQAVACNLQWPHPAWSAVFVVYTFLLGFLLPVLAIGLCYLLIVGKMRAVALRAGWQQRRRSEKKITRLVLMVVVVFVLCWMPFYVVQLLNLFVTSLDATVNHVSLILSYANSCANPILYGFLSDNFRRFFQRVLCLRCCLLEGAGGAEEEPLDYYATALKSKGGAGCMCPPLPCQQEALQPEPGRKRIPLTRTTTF

Row | Compound | EC50 [1] | IC50 [2] | IC50 [3]
1 | Cc1cccnc1OCC(C)(C)NC(=O)C[C@H]1CCCN1C [Example 46, (R)-N-(2-methyl-1-((3-methylpyridin-2-yl)oxy)propan-2-yl)-2-(1-methylpyrrolidin-2-yl)acetamide] | 12.6 nM | 398 nM | 25100 nM
2 | Cc1cccnc1OCC(C)(C)NC(=O)C[C@@H]1CCCN1C [Example 47, (S)-N-(2-methyl-1-((3-methylpyridin-2-yl)oxy)propan-2-yl)-2-(1-methylpyrrolidin-2-yl)acetamide] | 12.6 nM | 398 nM | 25100 nM
3 | CN1CCC[C@H]1CC(=O)NC(C)(C)COc1ncccc1C(F)(F)F [Example 48, (S)-N-(2-methyl-1-((3-(trifluoromethyl)pyridin-2-yl)oxy)propan-2-yl)-2-(1-methylpyrrolidin-2-yl)acetamide] | 25.1 nM | 316 nM | 15800 nM
4 | CN1CCC[C@@H]1CC(=O)NC(C)(C)COc1ncccc1C(F)(F)F [Example 49, (R)-N-(2-methyl-1-((3-(trifluoromethyl)pyridin-2-yl)oxy)propan-2-yl)-2-(1-methylpyrrolidin-2-yl)acetamide] | 25.1 nM | 200 nM | 15800 nM
5 | CCN1CCCC1CC(=O)NC(C)(C)COc1ncccc1C(F)(F)F (stereo not drawn) [Example 50, 2-(1-ethylpyrrolidin-2-yl)-N-(2-methyl-1-((3-(trifluoromethyl)pyridin-2-yl)oxy)propan-2-yl)acetamide] | 15.8 nM | 126 nM | 12600 nM
6 | Cc1cccnc1OCC1(NC(=O)C[C@@H]2CCCN2C)CCC1 [Example 55, (S)-N-(1-(((3-methylpyridin-2-yl)oxy)methyl)cyclobutyl)-2-(1-methylpyrrolidin-2-yl)acetamide] | 100 nM | 1000 nM | 39800 nM
7 | CCN1CCC[C@@H]1CC(=O)NC(C)(C)COc1ncccc1C(F)(F)F [Example 57, (R)-2-(1-ethylpyrrolidin-2-yl)-N-(2-methyl-1-((3-(trifluoromethyl)pyridin-2-yl)oxy)propan-2-yl)acetamide] | 3.98 nM | 100 nM | 12600 nM
8 | C[C@H](NC(=O)CC1CCCCN1C)c1ccc(Cl)cc1 (stereo partly drawn) [Example 60, N-((S)-1-(4-chlorophenyl)ethyl)-2-(1-methylpiperidin-2-yl)acetamide] | 100 nM | 501 nM | 25100 nM
9 | CCN1CCCC1CC(=O)NC(C)(C)COc1ncccc1C (stereo not drawn) [Example 62, 2-(1-ethylpyrrolidin-2-yl)-N-(2-methyl-1-((3-methylpyridin-2-yl)oxy)propan-2-yl)acetamide] | 25.1 nM | 251 nM | 25100 nM
10 | Cc1cc2ccccc2c(C(C)(C)NC(=O)C[C@H]2CCCN2C)n1 [Example 70, (R)-N-(2-(3-methylisoquinolin-1-yl)propan-2-yl)-2-(1-methylpyrrolidin-2-yl)acetamide] | 5.01 nM | 79.4 nM | 1260 nM
11 | Cc1cccnc1OCC1(NC(=O)C(C)C2CCCN2C)CC1 (stereo not drawn) [Example 71, N-(1-(((3-methylpyridin-2-yl)oxy)methyl)cyclopropyl)-2-(1-methylpyrrolidin-2-yl)propanamide] | 31.6 nM | 251 nM | 25100 nM
12 | Cc1cccnc1OCC(C)(C)NC(=O)CC12CCCN1CCC2 [Example 77, N-(2-methyl-1-((3-methylpyridin-2-yl)oxy)propan-2-yl)-2-(tetrahydro-1H-pyrrolizin-7a(5H)-yl)acetamide] | 79.4 nM | 3160 nM | > 50100 nM
13 | CC(C)(COc1ncccc1C(F)F)NC(=O)CC12CCCN1CCC2 [Example 78, N-(1-((3-(difluoromethyl)pyridin-2-yl)oxy)-2-methylpropan-2-yl)-2-(tetrahydro-1H-pyrrolizin-7a(5H)-yl)acetamide] | 251 nM | 10000 nM | > 50100 nM
14 | CN1CCC[C@H]1CC(=O)NC(C)(C)c1cccc(Cl)c1Cl [Example 80, (S)-N-(2-(2,3-dichlorophenyl)propan-2-yl)-2-(1-methylpyrrolidin-2-yl)acetamide] | 25.1 nM | 316 nM | 20000 nM
15 | Cc1cccc(C(C)(C)NC(=O)C[C@@H]2CCCN2C)c1Cl [Example 88, (S)-N-(2-(2-chloro-3-methylphenyl)propan-2-yl)-2-(1-methylpyrrolidin-2-yl)acetamide] | 63.1 nM | 398 nM | 39800 nM
16 | Cc1cccc(C(C)(C)NC(=O)C[C@H]2CCCN2C)c1Cl [Example 91, (R)-N-(2-(2-chloro-3-methylphenyl)propan-2-yl)-2-(1-methylpyrrolidin-2-yl)acetamide] | 39.8 nM | 398 nM | 25100 nM

Row | Compound | EC50 [1] | IC50 [2] | IC50 [3]
17 | Cc1cccc(C(C)(C)NC(=O)C[C@@H]2CCCN2C)c1C [Example 92, (S)-N-(2-(2,3-dimethylphenyl)propan-2-yl)-2-(1-methylpyrrolidin-2-yl)acetamide] | 63.1 nM | 1000 nM | > 50100 nM
18 | CN1CCC[C@@H]1CC(=O)NC(C)(C)c1cccc(F)c1Cl [Example 94, (R)-N-(2-(2-chloro-3-fluorophenyl)propan-2-yl)-2-(1-methylpyrrolidin-2-yl)acetamide] | 63.1 nM | 398 nM | > 50100 nM
19 | CN1CCC[C@@H]1CC(=O)NC(C)(C)c1cccc(Cl)c1Cl [Example 96, (R)-N-(2-(2,3-dichlorophenyl)propan-2-yl)-2-(1-methylpyrrolidin-2-yl)acetamide] | 15.8 nM | 200 nM | 15800 nM
20 | CC(C)(NC(=O)CC1NCCC1(F)F)c1nccc2ccccc12 (stereo not drawn) [Example 100, 2-(3,3-difluoropyrrolidin-2-yl)-N-(2-(isoquinolin-1-yl)propan-2-yl)acetamide] | 200 nM | 1000 nM | > 50100 nM
21 | Cc1cccc2c(C(C)(C)NC(=O)CC3NCCC3(F)F)nccc12 (stereo not drawn) [Example 101, 2-(3,3-difluoropyrrolidin-2-yl)-N-(2-(5-methylisoquinolin-1-yl)propan-2-yl)acetamide] | 100 nM | 631 nM | > 50100 nM
22 | Cc1cccc(OCC(C)(C)NC(=O)C[C@@H]2CCCN2C)n1 [Example 104, (S)-N-(2-methyl-1-((6-methylpyridin-2-yl)oxy)propan-2-yl)-2-(1-methylpyrrolidin-2-yl)acetamide] | 100 nM | 2000 nM | 39800 nM
23 | COc1c(Cl)cccc1C(C)(C)NC(=O)C[C@@H]1CCCN1C [Example 112, (S)-N-(2-(3-chloro-2-methoxyphenyl)propan-2-yl)-2-(1-methylpyrrolidin-2-yl)acetamide] | 79.4 nM | 501 nM | > 50100 nM
24 | Cc1c(Cl)cccc1C(C)(C)NC(=O)C[C@@H]1CCCN1C [Example 118, (S)-N-(2-(3-chloro-2-methylphenyl)propan-2-yl)-2-(1-methylpyrrolidin-2-yl)acetamide] | 79.4 nM | 398 nM | 39800 nM
25 | Cc1c(Cl)cccc1C(C)(C)NC(=O)C[C@H]1CCCN1C [Example 119, (R)-N-(2-(3-chloro-2-methylphenyl)propan-2-yl)-2-(1-methylpyrrolidin-2-yl)acetamide] | 15.8 nM | 251 nM | 20000 nM
26 | CC(CN1CCC1)C(=O)NC(C)(C)c1ccccc1Cl (stereo not drawn) [Example 132, 3-(azetidin-1-yl)-N-(2-(2-chlorophenyl)propan-2-yl)-2-methylpropanamide] | 7.94 nM | 79.4 nM | 20000 nM
27 | CC(CN1CCCC1)C(=O)NC(C)(C)c1ccccc1Cl (stereo not drawn) [Example 135, N-(2-(2-chlorophenyl)propan-2-yl)-2-methyl-3-(pyrrolidin-1-yl)propanamide] | 10 nM | 158 nM | 15800 nM
28 | CN1CCC[C@H]1CC(=O)NC(C)(C)c1ccccc1F [Example 160, (S)-N-(2-(2-fluorophenyl)propan-2-yl)-2-(1-methylpyrrolidin-2-yl)acetamide] | 158 nM | 1000 nM | > 50100 nM
29 | Cc1cccc(C(C)(C)NC(=O)CCN2CCC2)c1Cl [Example 161, 3-(azetidin-1-yl)-N-(2-(2-chloro-3-methylphenyl)propan-2-yl)propanamide] | 3.98 nM | 50.1 nM | 6310 nM
30 | Cc1cccc(C(C)(C)NC(=O)CCN2CCC2)c1 [Example 162, 3-(azetidin-1-yl)-N-(2-(m-tolyl)propan-2-yl)propanamide] | 7.94 nM | 79.4 nM | 25100 nM
31 | CC(C)(NC(=O)CCN1CCC1)c1cccc(F)c1 [Example 163, 3-(azetidin-1-yl)-N-(2-(3-fluorophenyl)propan-2-yl)propanamide] | 25.1 nM | 398 nM | > 50100 nM
32 | CC(C)(NC(=O)CCN1CCC1)c1cccc(Cl)c1 [Example 164, 3-(azetidin-1-yl)-N-(2-(3-chlorophenyl)propan-2-yl)propanamide] | 12.6 nM | 39.8 nM | 31600 nM

From patent US20230150981A1, “N-HETEROARYLALKYL-2-(HETEROCYCLYL AND HETEROCYCLYLMETHYL) ACETAMIDE DERIVATIVES AS SSTR4 AGONISTS” (Takeda Pharmaceutical Compnay Limited, priority 2020, published 2023)
